The results in this text go back to patent US20210395313A1, “PEPTIDE PAC1 ANTAGONISTS” (AMGEN INC., priority 2017, published 2021).

pIC50: −log10 of the molar value. Where a SMILES comes first, the peptide text is derived from it. Bridges are numbered along the chain shown (N, C = ends). Where no end group is shown, it is not given here.

As usually defined, the pIC50 is the IC50 on a negative log10 scale, so that one unit is a factor of ten. Lower therefore signals a high IC50.

One experiment has as its target T1, human PAC1 receptor (Homo sapiens, UniProt P41586).
T1 construct: SHSY-5Y (human neuroblastoma cell line) and RG-2 (rat glioma cell line) cells endogenously express human and rat PAC1 receptors, respectively; endogenous in cells; host or cells: SHSY-5Y human neuroblastoma cells
T1 sequence (P41586 21-468): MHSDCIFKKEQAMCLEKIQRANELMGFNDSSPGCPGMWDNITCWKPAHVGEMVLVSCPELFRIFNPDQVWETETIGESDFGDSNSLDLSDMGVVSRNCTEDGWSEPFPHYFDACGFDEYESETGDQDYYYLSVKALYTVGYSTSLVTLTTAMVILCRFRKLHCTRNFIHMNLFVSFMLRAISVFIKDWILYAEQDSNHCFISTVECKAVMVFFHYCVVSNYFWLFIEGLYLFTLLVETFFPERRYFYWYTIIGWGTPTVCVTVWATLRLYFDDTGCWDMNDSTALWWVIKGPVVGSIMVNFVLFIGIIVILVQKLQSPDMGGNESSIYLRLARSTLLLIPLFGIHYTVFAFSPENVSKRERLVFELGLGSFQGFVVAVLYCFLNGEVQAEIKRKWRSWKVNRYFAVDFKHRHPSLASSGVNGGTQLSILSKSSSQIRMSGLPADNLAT
Description: LANCE Ultra cAMP accumulation antagonist assay in SHSY-5Y cells.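 Also: inhibition of cAMP accumulation evoked by PAC1 agonist at its EC80 in SHSY-5Y cells endogenously expressing receptor, 30 min preincubation then 15 min agonist, TR-FRET readout.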 Format: cell-based.

The target of a further experiment is T2, rat PAC1 receptor (Rattus norvegicus, UniProt P32215).
T2 construct: SHSY-5Y (human neuroblastoma cell line) and RG-2 (rat glioma cell line) cells endogenously express human and rat PAC1 receptors, respectively; endogenous in cells; host or cells: RG-2 rat glioma cells
T2 sequence (P32215 20-523): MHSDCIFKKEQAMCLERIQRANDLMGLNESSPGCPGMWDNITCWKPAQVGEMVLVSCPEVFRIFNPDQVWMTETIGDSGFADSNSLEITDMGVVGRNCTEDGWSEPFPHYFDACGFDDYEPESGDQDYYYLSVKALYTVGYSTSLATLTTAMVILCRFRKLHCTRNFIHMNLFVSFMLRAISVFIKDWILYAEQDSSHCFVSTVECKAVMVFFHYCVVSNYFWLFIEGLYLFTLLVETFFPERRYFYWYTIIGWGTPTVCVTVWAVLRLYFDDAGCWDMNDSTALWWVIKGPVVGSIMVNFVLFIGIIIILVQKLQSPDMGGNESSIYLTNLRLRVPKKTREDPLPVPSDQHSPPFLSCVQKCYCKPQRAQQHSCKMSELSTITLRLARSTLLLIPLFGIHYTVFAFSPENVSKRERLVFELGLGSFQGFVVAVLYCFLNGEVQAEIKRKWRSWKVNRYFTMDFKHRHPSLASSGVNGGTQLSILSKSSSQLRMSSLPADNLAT
Description: LANCE Ultra cAMP accumulation antagonist assay in RG-2 cells.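 Also: RG-2 rat glioma cells endogenously expressing PAC1, test peptide preincubated 30 min, then PAC1 agonist added at its EC80 for 15 min, cAMP accumulation read by LANCE Ultra.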 Type of experiment: cell-based.

For another experiment, the target named is T3, PAC1 (Rattus norvegicus, UniProt P32215).
T3 construct: Naive male Sprague Dawley® rats aged 8-12 weeks at the time of the study were purchased from Charles River Laboratories; tissue Charles River Laboratories; host or cells: live male Sprague Dawley rats; dermal blood flow on abdominal skin
T3 sequence (P32215 20-523): T2 sequence (P32215 20-523)
Put plainly: Rat maxadilan-induced increase in blood flow (MIIBF) PD model, laser Doppler imaging. Type of experiment: in vivo. The conditions noted are these: for inhibition of maxadilan-induced increase in DBF: single bolus s.c., lowest dose of 0.3 mg/kg, 15 min prior to maxadilan, 45 min post peptide treatment; for inhibition of MIIBF (dermal blood flow): single bolus i.v., lowest dose of 0.1 mg/kg, 5 min prior to maxadilan, 35 min post peptide treatment. How it is done:
PAC1 peptide antagonists were also evaluated in an in vivo pharmacodynamic model—a model of maxadilan-induced increase in blood flow.
Naive male Sprague Dawley® rats aged 8-12 weeks at the time of the study were purchased from Charles River Laboratories. Animals were group-housed in non-sterile, ventilated micro-isolator housing in Amgen Assessment and Accreditation of Laboratory Animal Committee (AAALAC)-accredited facility. Animals had ad libitum access to pelleted feed (Harlan Teklad 2020X, Indianapolis, IN) and water (on-site generated reverse osmosis) via automatic watering system.
All PAC1 peptides were tested in a rat maxadilan-induced increase in blood flow (MIIBF) pharmacodynamic (PD) model with a laser Doppler imaging. A dosing solution of maxadilan (Bachem, H6734.0500) was prepared fresh daily by diluted maxadilan stock solution (0.5 mg/mL) in 1× PBS to the final concentration of 0.5 μg/mL. All tested peptides were prepared in 1× PBS at different concentrations depend on the dose required for the experiment and given in a single bolus i.v. or s.c. injection. A laser Doppler imager (LDI-2, Moor Instruments, Ltd, Wilmington, Del.) was used to measure dermal blood flow (DBF) on the shaved skin of the rat abdomen with a low-power laser beam generated by a 633 nm helium-neon bulb. The measurement resolution was 0.2 to 2 mm, with scanning distances between the instrument aperture and the tissue surface of 30 cm. In this report, DBF was measured and expressed as % change from baseline [100×(individual post-CAP flux-individual baseline flux)/individual baseline flux] and further calculated to % Inhibition to quantify the magnitude of drug effect [Mean of vehicle % change from BL−individual drug treated rat % change from BL)/Mean of vehicle % change from BL].
On the test day, following anesthetization with propofol, the rat's abdominal area was shaved and each animal was placed in a supine position on a temperature-controlled circulating warm-water pad to maintain a stable body temperature during the study. After a 10 to 15 minute stabilization period, a rubber O-ring (0.925 cm inner diameter, O-Rings West, Seattle, Wash.) was placed on the rat abdomen without directly positioning it over a visible blood vessel while the rat placed in a supine position on a temperature-controlled circulating warm-water pad to maintain a stable body temperature during the study. After placement of an O-ring on the selected area, a baseline (BL) DBF measurement was taken. After the BL scan, PAC1 peptides were administrated either 5 min for i.v., or 15 min for s.c. then followed by 20 μL (in 0.5 μg/mL) intradermal injection of maxadilan at the center of the O-ring. The post-maxadilan DBF was measured at 30 min and the post peptides time was 35 min for i.v. and 45 min for s.c. respectively. The O-ring serves as an area of interest in which the DBF will be analyzed within the O-ring.
All DBF results were expressed as the mean±SEM. A one-way ANOVA followed by Dunnett's Multiple Comparison Test (MCT) was used to assess the statistical significance of PAC1 peptides effects relative to the vehicle within the study. A p<0.05 was used to determine significance between any two groups.

Take `CC[C@H](C)[C@H](NC(=O)[C@H](C)NC(=O)[C@H](CCCCN)NC(=O)[C@H](CCCNC(=N)N)NC(=O)[C@H](Cc1ccccc1)NC(=O)[C@H](CCC(N)=O)NC(=O)[C@@H]1CSSC[C@H](N)C(=O)N[C@@H](CC(=O)O)C(=O)N[C@@H](C)C(=O)N[C@@H]([C@@H](C)O)C(=O)N1)C(=O)N[C@@H](CC(=O)O)C(=O)N[C@@H](CC(=O)O)C(=O)N[C@H]1CSSC[C@@H](C(=O)N[C@@H](CCSC)C(=O)N[C@@H](CCCCN)C(=O)N[C@@H](CCC(N)=O)C(=O)N[C@@H](CCCCN)C(=O)N[C@@H](CCCCN)C(=O)N[C@@H](CCCCN)C(=O)N[C@@H](CCC(=O)O)C(=O)N[C@@H](Cc2c[nH]c3ccccc23)C(=O)N[C@@H](CCCCN)C(=O)N[C@@H](C)C(=O)NCC(N)=O)NC(=O)[C@H](C)NC(=O)[C@H](CCCCN)NC(=O)[C@H](Cc2ccccc2)NC(=O)[C@H](C(C)C)NC(=O)[C@H](CO)NC(=O)[C@H](CO)NC(=O)[C@H](Cc2c[nH]cn2)NC(=O)[C@H](Cc2ccc(O)cc2)NC(=O)[C@H](C)NC(=O)[C@H](CCC(N)=O)NC(=O)[C@H](CCCNC(=N)N)NC(=O)[C@H](C)NC1=O` [SEQ ID NO 65] (H-CDATCQFRKAIDDCARQAYHSSVFKACMKQKKKEWKAG-NH2; disulfide 1-5, 14-27): the negative-log IC50 (pIC50) at human PAC1 receptor and at rat PAC1 receptor was 9.00 to 11.00 each time. For the same compound, the “inhibition of maxadilan-induced increase in DBF” value at PAC1 was “statistically significant inhibition”.
As for “GCDATCQFRKAIDDCQKQAHHSNVPGSVFKACMKQKKKEFKAG-NH2 (disulfide 2-6, 15-32) [SEQ ID NO 181]”, the pIC50 at human PAC1 receptor is 7.00 to 9.00; at rat PAC1 receptor, 9.00 to 11.00. Further, the “inhibition of MIIBF (dermal blood flow)” value against PAC1 is reported as “statistically significant inhibition”.
The matching figures for `CC[C@H](C)[C@H](NC(=O)[C@H](C)NC(=O)[C@H](CCCCN)NC(=O)[C@H](CCCNC(=N)N)NC(=O)[C@H](Cc1ccccc1)NC(=O)[C@H](CCC(N)=O)NC(=O)[C@@H]1CSSC[C@H](N)C(=O)N[C@@H](CC(=O)O)C(=O)N[C@@H](C)C(=O)N[C@@H]([C@@H](C)O)C(=O)N1)C(=O)N[C@@H](CC(=O)O)C(=O)N[C@@H](CC(=O)O)C(=O)N[C@H]1CSSC[C@@H](C(=O)N[C@@H](CCSC)C(=O)N[C@@H](CCCCN)C(=O)N[C@@H](CCC(N)=O)C(=O)N[C@@H](CCCCN)C(=O)N[C@@H](CCCCN)C(=O)N[C@@H](CCCCN)C(=O)N[C@@H](CCC(=O)O)C(=O)N[C@@H](Cc2ccccc2)C(=O)N[C@@H](CCCCN)C(=O)N[C@@H](C)C(=O)NCC(N)=O)NC(=O)[C@H](C)NC(=O)[C@H](CCCCN)NC(=O)[C@H](Cc2ccccc2)NC(=O)[C@H](C(C)C)NC(=O)[C@H](CO)NC(=O)CNC(=O)[C@@H]2CCCN2C(=O)[C@H](C(C)C)NC(=O)[C@H](CC(N)=O)NC(=O)[C@H](CO)NC(=O)[C@H](Cc2c[nH]cn2)NC(=O)[C@H](Cc2c[nH]cn2)NC(=O)[C@H](C)NC(=O)[C@H](CCC(N)=O)NC(=O)[C@H](CCCCN)NC(=O)[C@H](CCC(N)=O)NC1=O` [SEQ ID NO 233]: 7.00 to 9.00, 9.00 to 11.00 and “statistically significant inhibition”.
For “SCDATCQFRKAIDDCQKQAHHSNVPGSVFKACMKQKKKEFKAG-NH2 (disulfide 2-6, 15-32) [SEQ ID NO 183]”, in that order: 7.00 to 9.00, 9.00 to 11.00 and “statistically significant inhibition”.
Consider “CDATCQFRKAIDDCLLRAWHSNVPGSVFKACMKQKKKEFKAG-NH2 (disulfide 1-5, 14-31) [SEQ ID NO 85]”, for which the pIC50 against human PAC1 receptor and on rat PAC1 receptor was 9.00 to 11.00 throughout. The “inhibition of maxadilan-induced increase in DBF” value on PAC1 is recorded as “statistically significant inhibition”.
On to “CDATCQFRKAIDDCDRQAHHSNVPGSVFKACMKQKKKEWKAG-NH2 (disulfide 1-5, 14-31) [SEQ ID NO 163]”, for which the pIC50 against human PAC1 receptor and against rat PAC1 receptor was 9.00 to 11.00 throughout. Also, at PAC1, the “inhibition of maxadilan-induced increase in DBF” value is given as “statistically significant inhibition”.
For “CDATCQFRKAIDDCAKQAHHSNVPGSVFKACMKQKKKEFKAG-NH2 (disulfide 1-5, 14-31) [SEQ ID NO 180]”, the pIC50 against human PAC1 receptor is 9.00 to 11.00. At rat PAC1 receptor, the pIC50 was 9.00 to 11.00. Also, on PAC1, the “inhibition of MIIBF (dermal blood flow)” value is on record as “statistically significant inhibition” and the “inhibition of maxadilan-induced increase in DBF” value is reported as “statistically significant inhibition”.
For “CDATCQFRKAIDDCVKQAHHSNVPGSVFKACMKQKKKEFKAG-NH2 (disulfide 1-5, 14-31) [SEQ ID NO 179]”, the pIC50 against human PAC1 receptor and against rat PAC1 receptor was 9.00 to 11.00 in each case. Also, the “inhibition of MIIBF (dermal blood flow)” value on PAC1 is recorded as “statistically significant inhibition”.
For the compound `CC[C@H](C)[C@H](NC(=O)[C@H](C)NC(=O)[C@H](CCCCN)NC(=O)[C@H](CCCNC(=N)N)NC(=O)[C@H](Cc1ccccc1)NC(=O)[C@H](CCC(N)=O)NC(=O)[C@@H]1CSSC[C@H](N)C(=O)N[C@@H](CC(=O)O)C(=O)N[C@@H](C)C(=O)N[C@@H]([C@@H](C)O)C(=O)N1)C(=O)N[C@@H](CC(=O)O)C(=O)N[C@@H](CC(=O)O)C(=O)N[C@H]1CSSC[C@@H](C(=O)N[C@@H](CCSC)C(=O)N[C@@H](CCCCN)C(=O)N[C@@H](CCC(N)=O)C(=O)N[C@@H](CCCCN)C(=O)N[C@@H](CCCCN)C(=O)N[C@@H](CCCCN)C(=O)N[C@@H](CCC(=O)O)C(=O)N[C@@H](Cc2ccccc2)C(=O)N[C@@H](CCCCN)C(=O)N[C@@H](C)C(N)=O)NC(=O)C(C)(C)NC(=O)[C@H](CCCCN)NC(=O)[C@H](Cc2ccccc2)NC(=O)[C@H](C(C)C)NC(=O)[C@H](CO)NC(=O)CNC(=O)[C@@H]2CCCN2C(=O)[C@H](C(C)C)NC(=O)[C@H](CC(N)=O)NC(=O)[C@H](CO)NC(=O)[C@H](Cc2c[nH]cn2)NC(=O)[C@H](Cc2c[nH]cn2)NC(=O)[C@H](C)NC(=O)[C@H](CCC(N)=O)NC(=O)[C@H](CCCCN)NC(=O)[C@H](CCC(N)=O)NC1=O` [SEQ ID NO 250], the pIC50 at human PAC1 receptor was 7.00 to 9.00; on rat PAC1 receptor it was 9.00 to 11.00. In addition, on PAC1, the “inhibition of MIIBF (dermal blood flow)” value is on record as “statistically significant inhibition”.
